Assay results as given in patent publication US20140106387A1, “METHOD FOR CONTROLLING NAD(P)/NAD(P)H RATIO BY OXIDOREDUCTASE” (MD BIOALPHA CO., LTD., priority 2006, published 2014).

What was measured:
[1] = Respiratory Quotient and indirect calorimetry; assay type: in vivo, mouse
Experimental: O2 consumption of animals was recorded by a known method. For indirect calorimetry, mice were individually housed in calorimetry chambers (Oxymax OPTO-M3 system; Columbus Instruments, Columbus, Ohio). Animals were allowed to acclimate to a new environment for 48 hours prior to the experiment, and amounts of O2 consumption and CO2 production were measured for […] every 30 minutes. Mice were given free access to food and drinking water during the first 24 h period, and animals were given access to drinking water only during the second 24 h period. Blood samples were taken from a heparinized tube, immediately placed on ice, centrifuged and stored at −20[…] for future use. Enzymatic colorimetry was employed for quantification of triglyceride (TG), total cholesterol, free fatty acids, and glucose (Beckman Instruments, CA). Plasma insulin (Linco Research, MO), TNFα (R&D System), adiponectin (Linco Research, MO), resistin (KOMED) and leptin (Linco Research, MO) were quantified by ELISA.
This Example was intended to examine effects of pyran-1,2-naphthoquinone on fat metabolism via measurement of Respiratory Quotient (RQ). Oxygen consumption and carbon dioxide production were measured using an Oxyscan open-circuit indirect calorimeter (AccuScan Instruments, Columbus, Ohio). This apparatus consisted of enclosed acrylic chambers (21×21×21 cm). Fresh air was drawn into each chamber at a rate of 1500 mL/min and then O2 and CO2 were allowed to pass through detectors. The concentrations of the gases were recorded in mL/kg body weight/min. RQ was calculated as the volume of CO2 produced (VCO2) divided by the volume of O2 consumed (VO2). A pyrano-1,2-naphthoquinone-administered group, a vehicle-administered group and a control group were placed in each apparatus, and RQ was measured for 7 hours. For acclimation of the animals to the new environment, mice were placed in the apparatus 2 hours prior to measurement.

HepG2 cells = assay: intracellular ATP, ADP and AMP levels by LC-MS in HepG2; assay type: cell-based, human; conditions: HepG2, 10 μM, 2 hours
Experimental: Samples were analyzed using an Agilent 1100 series LC/MSD system equipped with G1322A degasser, G1312A binary pump, G1315A photo-diode-array detector, 59987A electrospray interface and 5989B mass spectrometer. ES-MS analysis was performed using an Agilent 5989 electrospray (ES) mass spectrometer (MS) with an Agilent Atmospheric Pressure Ionization (API) interface fitted with a hexapole ion guide. Chromatogram was automatically integrated with the aid of Chemstation software, and concentrations were determined using a standard calibration curve.
Acid extraction was used for analysis of an AOPN concentration in the cells and liver tissues. 400 μl of 6% HClO4 was added to the cells cultured in a 100 mm dish, whereas a two-fold volume of 6% HClO4 was added to the liver tissues which were then immediately homogenized. Each mixture was centrifuged at 14,000 g and 4° C. for 10 min, and the resulting supernatants were neutralized by addition of 1 M borate buffer (pH 11) containing 4 mM EDTA in an amount of 75%. Samples were aliquoted and stored at a temperature of −80° C.
A mobile phase was 100 mM ammonium acetate:MeOH (98:2, v/v), and preparations were filtered through a 0.22-μm Millipore filter. A flow rate was set to 0.8 mL/min and detection was made at 254 nm. Separation was carried out using a ZORBAX Bonus-RP C18 column (3.5 μm, 4.6×150 mm I.D., Waters, USA). […]

HEK293 cells = assay: intracellular NADH / NAD(P)H concentration in HEK293 cells; assay type: cell-based, human; conditions: for intracellular NADH concentration: 2 hours
Experimental: 2) Determination of Intracellular NAD(P)H Using a Water-Soluble Tetrazolium Salt-8 (WST-8) in Living Cells:
A water-soluble tetrazolium salt was used to monitor the amount of NAD(P)H through its reduction to a yellow colored formazan dye. The total amount of NAD(P)H within viable cells in the medium was determined periodically by a spectrophotometer. Cells were seeded in 96-well plates (2×10^4 cells/well) and were cultured in 100 μl of a medium containing fetal bovine serum (FBS) and antibiotics for 24 hours. Immediately after treatment of the cells with a candidate compound (e.g., pyrano-1,2-naphthoquinone) at indicated concentrations and a 1/10 volume of a CCK-8 solution (Dojindo Molecular Technology), absorbance measurements were carried out using a spectrophotometer. The CCK-8 solution consisted of a water-soluble 2-(2-methoxy-4-nitrophenyl)-3-(4-nitrophenyl)-5-(2,4-disulfophenyl)-2H-tetrazolium monosodium salt (WST-8, 5 mM) and 1-methoxy-5-methylphenazinium methylsulfate (1-methoxy PMS, 0.2 mM) as an electron mediator. WST-8 produced a water-soluble yellow colored formazan dye through its bioreduction either in the presence of an electron carrier, 1-methoxy PMS and NAD(P)H or directly by NAD(P)H. Therefore, the reduction in tetrazolium salts mostly depends on the amount of intracellular NAD(P)H. The amount of formazan dye produced by the living cells in the medium was determined periodically at a wavelength of 450 nm (reference filter. 650 nm) by a spectrophotometer and compared to the values of control. In addition, a medium blank was prepared with only medium and physiological saline.
In order to monitor monochromatic fluorescence (350 nm), light was illuminated using a 75 W xenon arc lamp directed via a 10 Hz chopper wheel; specific fluorescence intensity was measured at a wavelength of 405±15 nm and 460±10 nm.
Specifically, the NQO1 activity and changes in the intracellular NAD(P)H fluorescence concentration in the presence/absence of NQO1 activity were measured in HepG2, HEK293 and pSG5 HA-NQO1 or pSG5 HA NQO1 C609T-inserted HEK293 cells.

CC1(C)CCC2=C(O1)c1ccccc1C(=O)C2=O [βL, 2,2-Dimethyl-3,4-dihydro-2H-benzo[h]chromene-5,6-dione]
Respiratory Quotient (RQ) ([1]; measured for 7 hours, vs vehicle-administered and control group): significant difference in a RQ value
oxygen consumption (indirect calorimetry) ([1]; βL-treated mice): increases in night-time and day-time oxygen consumption
energy consumption ([1]; βL-treated mice vs control group): higher energy consumption
time at which ATP amount was minimum and AMP amount maximum (HepG2 cells): 30 min
intracellular NADH concentration (HEK293 cells; HEK293 cells after insertion of an NQO1 gene): concentration-dependent decrease of NADH
intracellular NADH concentration (HEK293 cells; HEK293 cells having no NQO1 activity): no change in an NADH concentration
NAD(P)H oxidation (HEK293 cells; HEK293 cells with insertion of a wild-type NQO1 gene): βL-facilitated NAD(P)H oxidation
NAD(P)H oxidation (HEK293 cells; HEK293 cells with insertion of catalytically inactive NQO1C609T gene): no oxidation of NAD(P)H
NAD(P)H oxidation (HEK293 cells; control HEK293 cells without the NQO1 activity): no such changes
